Reference: US20040037735A1, “Allograft tissue purification process for cleaning bone” (priority 2002, published 2004)
Read-outs that look alike come from different tables or passages of the source.

Assays:
[1] = system: Staphylococcus epidermidis; test: Bacteriological sterility: log reduction on cortical bone samples; type: cell-based; settings: single process step; for Microbiological Log Reductions T2: full cycle time; for Microbiological Log Reductions T1: one quarter cycle time
Experimental: (§1) Bacteriological Sterility: Cortical bone samples were subjected to the previous steps of the process. […] The samples were assayed for bacteria activity, using standard assays.

Candida albicans = test: as above; type: cell-based; settings: single process step; for Microbiological Log Reductions T2: full cycle time; for Microbiological Log Reductions T1: one quarter cycle time
Experimental: as §1

Staphylococcus aureus = test: as above; type: cell-based; settings: single process step; for Microbiological Log Reductions T2: full cycle time; for Microbiological Log Reductions T1: one quarter cycle time
Experimental: as §1

Escherichia coli = test: as above; type: cell-based; settings: single process step; for Microbiological Log Reductions T2: full cycle time; for Microbiological Log Reductions T1: one quarter cycle time
Experimental: as §1

Pseudomonas aeruginosa = test: as above; type: cell-based; settings: single process step; for Microbiological Log Reductions T2: full cycle time; for Microbiological Log Reductions T1: one quarter cycle time
Experimental: as §1

[2] = system: Bacillus subtilis (vegetative); test: as above; type: cell-based; settings: single process step; for Microbiological Log Reductions T2: full cycle time; for Microbiological Log Reductions T1: one quarter cycle time
Experimental: as §1

[3] = 32% DBM in hyaluronan carrier, histology after 28 days
Experimental: Osteoinductivity: Cortical bone from three donors ([…], […], […]) was processed using a control process, 0 hour H2O2 with no sonication, a treatment process with 1 hour, 3 hours, and 5 hours of H2O2 treatment, and a negative control. After processing, the bone was ground, demineralized, and prepared into 32% Demineralized Bone Matrix in a hyaluronan carrier. Samples (15 mg) were implanted bilaterally into the hamstring muscle in an athymic mouse model, approved by the University of Medicine and Dentistry of New Jersey animal care and use committee. Implants were evaluated histologically after 28 days.

Compound	Microbiological Log Reductions T2 [1]	Microbiological Log Reductions T1 [1]	Microbiological Log Reductions T2 (Candida albicans)	Microbiological Log Reductions T1 (Candida albicans)	Microbiological Log Reductions T2 (Staphylococcus aureus)	Microbiological Log Reductions T1 (Staphylococcus aureus)	Microbiological Log Reductions T2 (Escherichia coli)	Microbiological Log Reductions T1 (Escherichia coli)	Microbiological Log Reductions T2 (Pseudomonas aeruginosa)	Microbiological Log Reductions T1 (Pseudomonas aeruginosa)	Microbiological Log Reductions T2 [2]	Microbiological Log Reductions T1 [2]	mean (SD) osteoinductivity score ([3]; 1 hour H2O2 treatment of bone)	mean (SD) osteoinductivity score ([3]; 3 hours H2O2 treatment of bone)	mean (SD) osteoinductivity score ([3]; 5 hours H2O2 treatment of bone)
Triton X-100	0.41 Log	0.56 Log	1.58 Log	1.78 Log	0.20 Log	−0.59 Log	1.82 Log	0.03 Log	3.40 Log	2.48 Log	2.41 Log	2.56 Log	–	–	–
OO [H2O2, hydrogen peroxide]	>5.21 Log	>5.21 Log	>5.10 Log	>5.47 Log	>5.93 Log	>5.93 Log	>5.19 Log	>5.19 Log	>5.09 Log	>5.09 Log	>5.25 Log	>5.25 Log	3.04 (0.97)	2.57 (1.36)	1.47 (1.10)
